Assay results taken from patent US8058306B2, “Phenyl pyrrole aminoguanidine derivatives” (Action Pharma A/S, priority 2006, dated 2011).
Values joined by “and” are separate entries in the source; they are usually repeats but may differ in a detail not shown here. Identical values can stand only once. “Also recorded” adds a separate entry of the source. Like-named read-outs stand apart in the source and are kept apart here.

Test: Plasma kinetics in rat following intravenous and oral administration
Format: in vivo, Sprague Dawley rats
Conditions: male rats; for concentration at 24 h: iv; for MRT: read-out: MRT
Method: This study determined the intravenous pharmacokinetics and oral bioavailability of compound 1 of the invention (see FIG. 1A, structure no. 1), compound 2 of the invention (see FIG. 1D, structure no. 19) and compound 3 of the invention (see FIG. 1I, structure no. 53) following administration to Sprague Dawley rats at a dose level of 10 mg/kg.
Six groups of 3 male rats received either a single intravenous or single oral administration of compound 1, 2 or 3 of the invention at a dose level of 10 mg/kg. Blood samples were obtained at various times after dosing. Plasma samples were analysed for unchanged test item using a suitable LC-MS/MS method. Pharmacokinetic parameters were estimated from individual plasma concentrations.
Eighteen male rats each received either a single intravenous or a single oral administration of either compound 1, 2 or 3 at a dose level of 10 mg/kg. The formulation was orally administered to each animal by gastric gavage and intravenously administered to each animal via a tail vein. The dose was administered at a dose volume of 5 mL/kg. The formulations were administered to each animal according to the details in the following table:
Blood samples (ca 0.3 mL) were removed from the femoral vein of each animal into tubes containing lithium heparin as anticoagulant.
Blood samples were collected from 3 rats at the following times after dose administration: • 3, 6, 15, 45 min and 1.5, 2.5, 4, 6, 8, 24 h post dose. Oral Administration
Blood samples were collected from 3 rats at the following times after dose administration: • 5, 15, 45 min and 1.5, 2.5, 4, 6, 8, 24 h post dose. Processing of Blood Samples
Pharmacokinetic parameters of compound 1, 2 and 3 were derived by non-compartmental analysis using WinNonLin Pro version 5.0.1 (Pharsight 2005). The following parameters were derived, where appropriate, from the individual plasma concentration versus time profiles:
• F % The absolute oral bioavailability calculated as [AUC0-t (oral)*Dose(iv)/AUC0-t (iv)*Dose (oral)]*100 based on mean values derived after oral and intravenous administration Consideration was given to the estimation of λz and corresponding t1/2 values. Three or more points are required within the terminal phase for λz and t1/2 to be estimated. The following additional variables were tabulated to aid identification of potentially unreliable estimates of t1/2 and AUC:
Pharmacokinetic parameters were reported as geometric mean except Tmax which was reported as the median. Geometric coefficient of variation was calculated as: […]
Actual sampling times were used for all calculations of pharmacokinetic parameters. Plasma concentrations that were below the limit of quantification were taken as zero for the pharmacokinetic analysis.

[1] = male, Sprague Dawley, rat, plasma, po, 10 mg/kg, oral 10 mg/kg, individual animals
[2] = oral 10 mg/kg, individual animals, acetate, 10 mg/kg

concentration at 24 h (male, Sprague Dawley, rat, plasma, 10 mg/kg, single intravenous 10 mg/kg, 24 h, individual animals, LLOQ 2.50, read-out: Sample Concentration in plasma): 3.95 ng/mL
concentration at 24 h (male, Sprague Dawley, rat, plasma, 10 mg/kg, single intravenous 10 mg/kg, 24 h, mean, read-out: Mean Concentration in plasma): 3.95 ng/mL
AUC(0-t) (male, Sprague Dawley, rat, plasma, po, 10 mg/kg, oral 10 mg/kg, Arithmetic Mean, read-out: AUC0-t): 67.4 ng·h/mL
Cmax (male, Sprague Dawley, rat, plasma, po, 10 mg/kg, oral 10 mg/kg, Arithmetic Mean, read-out: Cmax): 31.2 ng/mL
Tmax (male, Sprague Dawley, rat, plasma, po, 10 mg/kg, oral 10 mg/kg, Arithmetic Mean, read-out: tmax): 1.75 h
AUC(0-t) (male, Sprague Dawley, rat, plasma, po, 10 mg/kg, oral 10 mg/kg, Geometric mean, read-out: AUC0-t): 66.1 ng·h/mL
Cmax (male, Sprague Dawley, rat, plasma, po, 10 mg/kg, oral 10 mg/kg, Geometric mean, read-out: Cmax): 26.3 ng/mL
MRT (male, Sprague Dawley, rat, plasma, po, 10 mg/kg, oral 10 mg/kg, Geometric mean): 3.06 h
half-life (male, Sprague Dawley, rat, plasma, po, 10 mg/kg, oral 10 mg/kg, Geometric mean, read-out: t1/2 (converted)): 2.25 h
Tmax (male, Sprague Dawley, rat, plasma, po, 10 mg/kg, oral 10 mg/kg, Geometric mean, read-out: tmax): 1.16 h
AUC(0-t) (male, Sprague Dawley, rat, plasma, po, 10 mg/kg, oral 10 mg/kg, Median, read-out: AUC0-t): 62.6 ng·h/mL
Cmax (male, Sprague Dawley, rat, plasma, po, 10 mg/kg, oral 10 mg/kg, Median, read-out: Cmax): 18.8 ng/mL
Tmax (male, Sprague Dawley, rat, plasma, po, 10 mg/kg, oral 10 mg/kg, Median, read-out: tmax): 2.5 h
AUC(0-inf) [1]: 102 ng·h/mL
AUC(0-t) (male, Sprague Dawley, rat, plasma, po, 10 mg/kg, oral 10 mg/kg, individual animals, read-out: AUC0-t): 85.6 ng·h/mL
MRT [1]: 3.06 h
half-life (male, Sprague Dawley, rat, plasma, po, 10 mg/kg, oral 10 mg/kg, individual animals, read-out: t1/2 (converted)): 2.25 h
Tmax (male, Sprague Dawley, rat, plasma, po, 10 mg/kg, oral 10 mg/kg, from mean plasma concentrations, read-out: time post dose at which maximum plasma concentration was observed (tmax)): 2.5 h
half-life (male, Sprague Dawley, rat, plasma, po, 10 mg/kg, oral 10 mg/kg, read-out: apparent terminal half-life (converted)): 2.25 h
concentration at 0.05 h (male, Sprague Dawley, rat, plasma, po, 10 mg/kg, single oral 10 mg/kg, 0.05 h, individual animals, LLOQ 2.50, read-out: Sample Concentration in plasma): 4.68 ng/mL
concentration at 0.05 h (male, Sprague Dawley, rat, plasma, po, 10 mg/kg, single oral 10 mg/kg, 0.05 h, mean, read-out: Mean Concentration in plasma): 4.68 ng/mL
concentration at 0.25 h (male, Sprague Dawley, rat, plasma, po, 10 mg/kg, single oral 10 mg/kg, 0.25 h, mean of 3, read-out: Mean Concentration in plasma): 25.5 ng/mL
concentration at 0.75 h (male, Sprague Dawley, rat, plasma, po, 10 mg/kg, single oral 10 mg/kg, 0.75 h, mean of 3, read-out: Mean Concentration in plasma): 13.9 ng/mL
concentration at 1.5 h (male, Sprague Dawley, rat, plasma, po, 10 mg/kg, single oral 10 mg/kg, 1.5 h, individual animals, read-out: Sample Concentration in plasma): 9.56 ng/mL
concentration at 1.5 h (male, Sprague Dawley, rat, plasma, po, 10 mg/kg, single oral 10 mg/kg, 1.5 h, mean of 3, read-out: Mean Concentration in plasma): 12.3 ng/mL
concentration at 2.5 h (male, Sprague Dawley, rat, plasma, po, 10 mg/kg, single oral 10 mg/kg, 2.5 h, individual animals, read-out: Sample Concentration in plasma): 16.5 ng/mL
concentration at 2.5 h (male, Sprague Dawley, rat, plasma, po, 10 mg/kg, single oral 10 mg/kg, 2.5 h, mean of 3, read-out: Mean Concentration in plasma): 17.1 ng/mL
concentration at 4 h (male, Sprague Dawley, rat, plasma, po, 10 mg/kg, single oral 10 mg/kg, 4 h, mean of 3, read-out: Mean Concentration in plasma): 7.91 ng/mL
concentration at 6 h (male, Sprague Dawley, rat, plasma, po, 10 mg/kg, single oral 10 mg/kg, 6 h, individual animals, read-out: Sample Concentration in plasma): 2.76 ng/mL
concentration at 6 h (male, Sprague Dawley, rat, plasma, po, 10 mg/kg, single oral 10 mg/kg, 6 h, mean of 3, read-out: Mean Concentration in plasma): 3.81 ng/mL
MAT (oral 10 mg/kg, individual animals): -0.465 h
AUC(0-t) [2]: 62.6 ng·h/mL and 54.0 ng·h/mL
Cmax [2]: 58.4 ng/mL and 16.5 ng/mL
Tmax [2]: 0.250 h
maximum observed plasma concentration, mean value (oral 10 mg/kg, at tmax): 17.1 ng/mL
Sample Concentration in plasma (single intravenous 10 mg/kg, 0.05 h, individual animals, acetate, 10 mg/kg): 2270 ng/mL and 3150 ng/mL
Sample Concentration in plasma (single intravenous 10 mg/kg, 0.1 h, individual animals, acetate, 10 mg/kg): 1020 ng/mL and 1410 ng/mL
Sample Concentration in plasma (single intravenous 10 mg/kg, 0.25 h, individual animals, acetate, 10 mg/kg): 612 ng/mL and 712 ng/mL
Sample Concentration in plasma (single intravenous 10 mg/kg, 0.75 h, individual animals, acetate, 10 mg/kg): 237 ng/mL and 334 ng/mL
Sample Concentration in plasma (single intravenous 10 mg/kg, 1.5 h, individual animals, acetate, 10 mg/kg): 232 ng/mL and 168 ng/mL
Sample Concentration in plasma (single intravenous 10 mg/kg, 2.5 h, individual animals, acetate, 10 mg/kg): 183 ng/mL and 194 ng/mL
Sample Concentration in plasma (single intravenous 10 mg/kg, 4 h, individual animals, acetate, 10 mg/kg): 158 ng/mL and 115 ng/mL
Sample Concentration in plasma (single intravenous 10 mg/kg, 6 h, individual animals, acetate, 10 mg/kg): 116 ng/mL and 58.1 ng/mL
Sample Concentration in plasma (single intravenous 10 mg/kg, 8 h, individual animals, LLOQ 2.50, acetate, 10 mg/kg): 42.7 ng/mL and 98.4 ng/mL and 54.1 ng/mL
Sample Concentration in plasma (single intravenous 10 mg/kg, 24 h, individual animals, LLOQ 2.50, acetate, 10 mg/kg): <LLOQ
Sample Concentration in plasma (single oral 10 mg/kg, 0.05 h, individual animals, LLOQ 2.50, acetate, 10 mg/kg): <LLOQ
Sample Concentration in plasma (single oral 10 mg/kg, 0.75 h, individual animals, acetate, 10 mg/kg): 9.02 ng/mL and 10.4 ng/mL and 22.4 ng/mL
Sample Concentration in plasma (single oral 10 mg/kg, 1.5 h, individual animals, acetate, 10 mg/kg): 9.84 ng/mL and 17.4 ng/mL
Sample Concentration in plasma (single oral 10 mg/kg, 2.5 h, individual animals, acetate, 10 mg/kg): 18.8 ng/mL and 16.1 ng/mL
Sample Concentration in plasma (single oral 10 mg/kg, 4 h, individual animals, acetate, 10 mg/kg): 12.6 ng/mL and 4.79 ng/mL and 6.35 ng/mL
Sample Concentration in plasma (single oral 10 mg/kg, 6 h, individual animals, acetate, 10 mg/kg): 3.74 ng/mL and 4.94 ng/mL
Sample Concentration in plasma (single oral 10 mg/kg, 8 h, individual animals, LLOQ 2.50): <LLOQ
Mean Concentration in plasma (single oral 10 mg/kg, 8 h, mean, LLOQ 2.50): <LLOQ
Sample Concentration in plasma (single oral 10 mg/kg, 24 h, individual animals, LLOQ 2.50): <LLOQ
Mean Concentration in plasma (single oral 10 mg/kg, 24 h, mean, LLOQ 2.50): <LLOQ
Compound: N=C(N)NN=CC=Cc1cccn1-c1ccccc1[N+](=O)[O-] [Compound 2, [1-(2-nitrophenyl)-1H-pyrrol-2-yl-allylideneamino]guanidinium acetate]
adverse effects (single intravenous or oral administration, 10 mg/kg, acetate): No adverse effects; also recorded: No adverse affects
Sample Concentration in plasma (single oral 10 mg/kg, 0.25 h, individual animals, acetate, 10 mg/kg): 9.11 ng/mL and 9.01 ng/mL and 58.4* ng/mL
